Results as given in patent publication US5164513A, “Imidazole derivative” (SS Pharmaceutical Co., Ltd., priority 1987, dated 1992).
In brackets after ≈: the same amount, converted by molar mass.

Columns and labels:
Assay type in all cases: cell-based
[1] = test system: Sarcina lutea ATCC 9341; test: Antimicrobial activity (MIC); settings: Micrococcus luteus, ATCC9341
[2] = test system: Microsporum audounii IFO 6074; test: Antimicrobial activity (MIC); settings: IFO6074
[3] = test system: Microsporum gypseum IFO 8231; test: Antimicrobial activity (MIC); settings: Nannizzia gypsea, IFO8231
[4] = test system: Epidermophyton floccosum IFO 9045; test: Antimicrobial activity (MIC); settings: IFO9045
[5] = test system: Trichophyton rubrum NHL J; test: Antimicrobial activity (MIC)
[6] = test system: Fusarium moniliforme IAM 5062; test: Antimicrobial activity (MIC); settings: Fusarium verticillioides, IAM5062
[7] = test system: Saccharomyces ruxii 6507; test: Antimicrobial activity (MIC)
[8] = test system: Streptococcus faecalis IFO 12964; test: Antimicrobial activity (MIC); settings: Enterococcus faecalis, IFO12964
[9] = test system: Pyricularia oryzae IAM 5016; test: microbe, parasite or virus in culture; settings: IAM5016
[10] = test system: Gibberella fujikuroi IAM 8046; test: Antimicrobial activity (MIC); settings: Fusarium fujikuroi, IAM8046
[11] = test system: Trichophyton mentagrophytes IFO 5812; test: Antimicrobial activity (MIC); settings: IFO5812
[12] = test system: Cladosporium fulvum IAM 5006; test: Antimicrobial activity (MIC); settings: Fulvia fulva, IAM5006
[13] = test system: Staphylococcus aureus FDA 209P; test: Antimicrobial activity (MIC); settings: FDA209P
[14] = test system: Candida albicans NHL 4019; test: Antimicrobial activity (MIC); settings: NHL4019
[15] = test system: Aspergillus niger ATCC 9642; test: Antimicrobial activity (MIC); settings: ATCC9642
[16] = test system: Trichophyton tonsurans IFO 5928; test: Antimicrobial activity (MIC); settings: IFO5928
[17] = test system: Debaryomyces kloeckeri IFO 0015; test: Antimicrobial activity (MIC); settings: IFO0015
[18] = test system: Penicillium chrysogenum ATCC 6010; test: Antimicrobial activity (MIC); settings: ATCC6010
[19] = test system: Micrococcus lysodeikticus IFO 3333; test: Antimicrobial activity (MIC); settings: Micrococcus luteus, IFO3333
[20] = test system: Staphylococcus aureus Smith; test: Antimicrobial activity (MIC)
[21] = test system: Trichophyton mentagrophytes QM 248; test: Antimicrobial activity (MIC); settings: QM248
[22] = test system: Candida albicans Yu-1200; test: Antimicrobial activity (MIC); settings: YU1200
[23] = test system: Aspergillus oryzae IMF 4014; test: Antimicrobial activity (MIC); settings: IMF4014
[24] = test system: Bacillus subtilis ATCC 6633; test: Antimicrobial activity (MIC); settings: ATCC6633
[25] = test system: Staphylococcus aureus Terajima; test: Antimicrobial activity (MIC)
[26] = test system: Microsporum cookei IFO 8303; test: Antimicrobial activity (MIC); settings: Paraphyton cookei, IFO8303
[27] = test system: Staphylococcus epidermidis ATCC 12228; test: Antimicrobial activity (MIC); settings: ATCC12228
[28] = test system: Helminthosporium sesamum IAM 5012; test: Antimicrobial activity (MIC); settings: IAM5012
[29] = test system: Saccharomyces cerevisiae ATCC 9763; test: Antimicrobial activity (MIC); settings: ATCC9763

Row | SMILES | MIC [1] [µg/mL] | MIC [2] [µg/mL] | MIC [3] [µg/mL] | MIC [4] [µg/mL] | MIC [5] [µg/mL] | MIC [6] [µg/mL] | MIC [7] [µg/mL] | MIC [8] [µg/mL] | MIC [9] [µg/mL] | MIC [10] [µg/mL] | MIC [11] [µg/mL] | MIC [12] [µg/mL] | MIC [13] [µg/mL] | MIC [14] [µg/mL] | MIC [15] [µg/mL] | MIC [16] [µg/mL] | MIC [17] [µg/mL] | MIC [18] [µg/mL] | MIC [19] [µg/mL] | MIC [20] [µg/mL] | also measured
1 | CCCCCCCCOc1ccccc1C(C)(O)Cn1ccnc1 (stereo not shown) [Compound 8] | 0.2 (≈ 0.605 µM) | < 0.006 | 0.006 (≈ 0.0182 µM) | 0.1 (≈ 0.303 µM) | < 0.006 | 3.12 (≈ 9.44 µM) | 0.39 (≈ 1.18 µM) | 6.25 (≈ 18.9 µM) | < 0.006 | 0.78 (≈ 2.36 µM) | < 0.006 | 0.78 (≈ 2.36 µM) | 3.12 (≈ 9.44 µM) | 12.5 (≈ 37.8 µM) | 0.025 (≈ 0.0756 µM) | < 0.006 | 3.12 (≈ 9.44 µM) | 3.12 (≈ 9.44 µM) | 1.56 (≈ 4.72 µM) | 3.12 (≈ 9.44 µM) | MIC [21]: 0.006 µg/mL (≈ 0.0182 µM); MIC [22]: 12.5 µg/mL (≈ 37.8 µM); MIC [23]: < 0.006 µg/mL; MIC [24]: 3.12 µg/mL (≈ 9.44 µM); MIC [25]: 3.12 µg/mL (≈ 9.44 µM); MIC [26]: 0.012 µg/mL (≈ 0.0363 µM); MIC [27]: 0.39 µg/mL (≈ 1.18 µM); MIC [28]: < 0.006 µg/mL; MIC [29]: 0.025 µg/mL (≈ 0.0756 µM)
2 | CCCCCCCCCOc1ccccc1C(C)(O)Cn1ccnc1 (stereo not shown) [Compound 59] | 0.05 (≈ 0.145 µM) | < 0.006 | < 0.006 | 0.2 (≈ 0.581 µM) | < 0.006 | 6.25 (≈ 18.1 µM) | 0.78 (≈ 2.26 µM) | 6.25 (≈ 18.1 µM) | < 0.006 | 1.56 (≈ 4.53 µM) | < 0.006 | 1.56 (≈ 4.53 µM) | 6.25 (≈ 18.1 µM) | 12.5 (≈ 36.3 µM) | 0.1 (≈ 0.29 µM) | < 0.006 | 12.5 (≈ 36.3 µM) | 6.25 (≈ 18.1 µM) | 1.56 (≈ 4.53 µM) | 6.25 (≈ 18.1 µM) | MIC [21]: < 0.006 µg/mL; MIC [22]: 25 µg/mL (≈ 72.6 µM); MIC [23]: < 0.006 µg/mL; MIC [24]: 6.25 µg/mL (≈ 18.1 µM); MIC [25]: 6.25 µg/mL (≈ 18.1 µM); MIC [26]: 0.1 µg/mL (≈ 0.29 µM); MIC [27]: 1.56 µg/mL (≈ 4.53 µM); MIC [28]: < 0.006 µg/mL; MIC [29]: 12.5 µg/mL (≈ 36.3 µM)
